Source: US12692249B2, “WDR5 inhibitors and modulators” (Vanderbilt University, priority 2019, dated 2026)
Where two headings read alike, the source gives them in different places.

Test system: MV4:11 human cancer cell lines
Assay: Cellular viability / anti-proliferative assay, CellTiter-Glo, 5 day protocol
Format: cell-based
Settings: Homo sapiens, MV4-11, 120 h, read-out: GI50 on cellular proliferation of MV4:11 human cancer cell lines
Experimental: Cellular Viability of Human Tumor Cell Lines
Anti-proliferative activity using MLL-harboring cell lines. MV-4-11 and K562 cells are grown in IMDM media supplemented with 10% FBS and 1% penicillin/streptomycin, Molm-13 cells are cultured in RPMI-1640 media supplemented with 10% FBS and 1% penicillin/streptomycin. Viability assays are performed by dispensing 200 cells at 7200 cells/mL into each well of an opaque 384-well plate and adding compounds at the indicated concentrations in a final volume, of 32 μL. and a final concentration of DMSO of 0.3% for all samples. A certain range of compound concentrations is made through a series of 2-fold dilutions starting 30 μM at the highest, total 22 dilutions. After a set incubation period, 5 day protocol, the viability of cells in each well is assessed using the CellTiter-Glo assay (Promega), read on a 96 Microplane Luminometer (Cytation 3, BioTek). Serial dilutions of each cell type are performed in all assays to generate standard curves and the final densities of cells are determined within the dynamic range of the instrument. GI50 values are calculated based on XLfit software (IDBS, Guildford, UK) with Sigmoidal Dose-Response Model. Each compound is tested in minimum of two replicates. Data are expressed as mean.

[1] = MV4:11 cells, 5 day incubation, CellTiter-Glo, mean of at least two replicates

SMILES | GI50 [1] [nM] | GI50 [nM]
CCc1cc(C(=O)O)c2nccc(N3CCc4c(cc(Cn5ccnc5)cc4-c4cn(C)nc4C(F)(F)F)C3=O)c2c1 [Example 92, 4-(7-((1H-imidazol-1-yl)methyl)-5-(1-methyl-3-(trifluoromethyl)-1H-pyrazol-4-yl)-1-oxo-3,4-dihydroisoquinolin-2(1H)-yl)-6-ethylquinoline-8-carboxylic acid] | 388 | –
CCc1cc(C(=O)NC2CN(C(C)=O)C2)c2nccc(N3CCc4c(cc(Cn5ccnc5)cc4-c4cn(C)nc4C(F)(F)F)C3=O)c2c1 [Example 241] | < 20 | –
COc1cc(N2CCC(NC(C)=O)CC2)c2nc(C)cc(N3CCc4c(cc(Cn5ccnc5)cc4-c4cn(C)nc4C(F)(F)F)C3=O)c2c1 [Example 192, N-(1-(4-(7-((1H-Imidazol-1-yl)methyl)-5-(1-methyl-3-(trifluoromethyl)-1H-pyrazol-4-yl)-1-oxo-3,4-dihydroisoquinolin-2(1H)-yl)-6-methoxy-2-methylquinolin-8-yl)piperidin-4-yl)acetamide] | < 20 | –
CCc1cc(C(=O)NC2CCN(C)C2)c2nccc(N3CCc4c(cc(Cn5ccnc5)cc4-c4cn(C)nc4C(F)(F)F)C3=O)c2c1 (stereo not shown) [Example 193, 4-(7-((1H-Imidazol-1-yl)methyl)-5-(1-methyl-3-(trifluoromethyl)-1H-pyrazol-4-yl)-1-oxo-3,4-dihydroisoquinolin-2(1H)-yl)-6-ethyl-N-(1-methylpyrrolidin-3-yl)quinoline-8-carboxamide] | < 20 | –
COc1cc(N2CCN(C)C(=O)C2)c2nc(C)cc(N3CCc4c(cc(Cn5ccnc5)cc4-c4cn(C)nc4C(F)(F)F)C3=O)c2c1 [Example 105, 7-((1H-Imidazol-1-yl)methyl)-2-(6-methoxy-2-methyl-8-(4-methyl-3-oxopiperazin-1-yl)quinolin-4-yl)-5-(1-methyl-3-(trifluoromethyl)-1H-pyrazol-4-yl)-3,4-dihydroisoquinolin-1(2H)-one] | < 20 | –
COc1cc(C(=O)NC(C)C)c2nccc(N3CCc4c(cc(Cn5ccnc5)cc4-c4cn(C)nc4C(F)(F)F)C3=O)c2c1 [Example 47, 4-(7-((1H-Imidazol-1-yl)methyl)-5-(1-methyl-3-(trifluoromethyl)-1H-pyrazol-4-yl)-1-oxo-3,4-dihydroisoquinolin-2(1H)-yl)-N-isopropyl-6-methoxyquinoline-8-carboxamide] | 54 | –
COc1cc(C(=O)N2CCN(C)CC2)c2nccc(N3CCc4c(cc(Cn5ccnc5)cc4-c4cn(C)nc4C(F)(F)F)C3=O)c2c1 [Example 43, 7-((1H-Imidazol-1-yl)methyl)-2-(6-methoxy-8-(4-methylpiperazine-1-carbonyl)quinolin-4-yl)-5-(1-methyl-3-(trifluoromethyl)-1H-pyrazol-4-yl)-3,4-dihydroisoquinolin-1(2H)-one] | 563 | –
CCc1cc(C(=O)NCCN(C)C)c2nccc(N3CCc4c(cc(Cn5ccnc5)cc4-c4cn(C)nc4C(F)(F)F)C3=O)c2c1 [Example 166, 4-(7-((1H-Imidazol-1-yl)methyl)-5-(1-methyl-3-(trifluoromethyl)-1H-pyrazol-4-yl)-1-oxo-3,4-dihydroisoquinolin-2(1H)-yl)-N-(2-(dimethylamino)ethyl)-6-ethylquinoline-8-carboxamide] | – | < 20
CCc1cc(-c2cccn2C)c2nccc(N3CCc4c(cc(Cn5ccnc5)cc4-c4cn(C)nc4C(F)(F)F)C3=O)c2c1 [Example 97, 7-((1H-Imidazol-1-yl)methyl)-2-(6-ethyl-8-(1-methyl-1H-pyrrol-2-yl)quinolin-4-yl)-5-(1-methyl-3-(trifluoromethyl)-1H-pyrazol-4-yl)-3,4-dihydroisoquinolin-1(2H)-one] | 83 | –
CCc1cc(C2CCN(C)CC2)c2nc(C)cc(N3CCc4c(cc(Cn5ccnc5)cc4-c4cn(C)nc4C(F)(F)F)C3=O)c2c1 [Example 148, 7-((1H-Imidazol-1-yl)methyl)-2-(6-ethyl-2-methyl-8-(1-methylpiperidin-4-yl)quinolin-4-yl)-5-(1-methyl-3-(trifluoromethyl)-1H-pyrazol-4-yl)-3,4-dihydroisoquinolin-1(2H)-one] | < 20 | –
CCOC(=O)c1cc(CC)cc2c(N3CCc4c(cc(Cn5ccnc5)cc4-c4cn(C)nc4C(F)(F)F)C3=O)ccnc12 [Example 91, Ethyl 4-(7-((1H-imidazol-1-yl)methyl)-5-(1-methyl-3-(trifluoromethyl)-1H-pyrazol-4-yl)-1-oxo-3,4-dihydroisoquinolin-2(1H)-yl)-6-ethylquinoline-8-carboxylate] | < 20 | –
CCc1cc(C(=O)NCC2CCCC2)c2nccc(N3CCc4c(cc(Cn5ccnc5)cc4-c4cn(C)nc4C(F)(F)F)C3=O)c2c1 [Example 170, 4-(7-((1H-Imidazol-1-yl)methyl)-5-(1-methyl-3-(trifluoromethyl)-1H-pyrazol-4-yl)-1-oxo-3,4-dihydroisoquinolin-2(1H)-yl)-N-(cyclopentylmethyl)-6-ethylquinoline-8-carboxamide] | 212 | –
COc1cc(C(N)=O)c2nccc(N3CCc4c(cc(Cn5ccnc5)cc4-c4cn(C)nc4C(F)(F)F)C3=O)c2c1 [Example 41, 4-(7-((1H-Imidazol-1-yl)methyl)-5-(1-methyl-3-(trifluoromethyl)-1H-pyrazol-4-yl)-1-oxo-3,4-dihydroisoquinolin-2(1H)-yl)-6-methoxyquinoline-8-carboxamide] | 24 | –
COc1cc(C(=O)NC2CN(C(C)=O)C2)c2nccc(N3CCc4c(cc(Cn5ccnc5)cc4-c4cn(C)nc4C(F)(F)F)C3=O)c2c1 [Example 226, 4-(7-((1H-Imidazol-1-yl)methyl)-5-(1-methyl-3-(trifluoromethyl)-1H-pyrazol-4-yl)-1-oxo-3,4-dihydroisoquinolin-2(1H)-yl)-N-(1-acetylazetidin-3-yl)-6-methoxyquinoline-8-carboxamide] | 43 | –

Continued, in another order:

GI50 [1] [nM] | SMILES | GI50 [nM]
444 | COc1cc(C(=O)N2CCOCC2)c2nccc(N3CCc4c(cc(Cn5ccnc5)cc4-c4cn(C)nc4C(F)(F)F)C3=O)c2c1 [Example 46, 7-((1H-Imidazol-1-yl)methyl)-2-(6-methoxy-8-(morpholine-4-carbonyl)quinolin-4-yl)-5-(1-methyl-3-(trifluoromethyl)-1H-pyrazol-4-yl)-3,4-dihydroisoquinolin-1(2H)-one] | –
88 | CCOC(=O)c1cc(CC)cc2c(N3CCc4c(cc(Cn5ccnc5)cc4-c4cn(C)nc4C(F)(F)F)C3=O)cc(C)nc12 [Example 162, ethyl 4-(7-((1H-imidazol-1-yl)methyl)-5-(1-methyl-3-(trifluoromethyl)-1H-pyrazol-4-yl)-1-oxo-3,4-dihydroisoquinolin-2(1H)-yl)-6-ethyl-2-methylquinoline-8-carboxylate] | –
155 | CCc1cc(C(=O)NC2CCCC2)c2nccc(N3CCc4c(cc(Cn5ccnc5)cc4-c4cn(C)nc4C(F)(F)F)C3=O)c2c1 [Example 164, 4-(7-((1H-Imidazol-1-yl)methyl)-5-(1-methyl-3-(trifluoromethyl)-1H-pyrazol-4-yl)-1-oxo-3,4-dihydroisoquinolin-2(1)-yl)-N-cyclopentyl-6-ethylquinoline-8-carboxamide] | –
< 20 | CCc1cc(N2CCN(C3COC3)CC2)c2nccc(N3CCc4c(cc(Cn5ccnc5)cc4-c4cn(C)nc4C(F)(F)F)C3=O)c2c1 [Example 215, 7-((1H-Imidazol-1-yl)methyl)-2-(6-ethyl-8-(4-(oxetan-3-yl)piperazin-1-yl)quinolin-4-yl)-5-(1-methyl-3-(trifluoromethyl)-1H-pyrazol-4-yl)-3,4-dihydroisoquinolin-1(2H)-one] | –
59 | CCc1cc(C(=O)Nc2nccn2C)c2nccc(N3CCc4c(cc(Cn5ccnc5)cc4-c4cn(C)nc4C(F)(F)F)C3=O)c2c1 [Example 161, 4-(7-((1H-Imidazol-1-yl)methyl)-5-(1-methyl-3-(trifluoromethyl)-1H-pyrazol-4-yl)-1-oxo-3,4-dihydroisoquinolin-2(1H)-yl)-6-ethyl-N-(1-methyl-1H-imidazol-2-yl)quinoline-8-carboxamide] | –
119 | CCCCNC(=O)c1cc(OC)cc2c(N3CCc4c(cc(Cn5ccnc5)cc4-c4cn(C)nc4C(F)(F)F)C3=O)ccnc12 [Example 48, 4-(7-((1H-Imidazol-1-yl)methyl)-5-(1-methyl-3-(trifluoromethyl)-1H-pyrazol-4-yl)-1-oxo-3,4-dihydroisoquinolin-2(1H)-yl)-N-butyl-6-methoxyquinoline-8-carboxamide] | –
55 | CCc1cc(OC)c2nccc(N3CCc4c(cc(Cn5ccnc5)cc4-c4cccnc4C(F)(F)F)C3=O)c2c1 [Example 185, 7-((1H-Imidazol-1-yl)methyl)-2-(6-ethyl-8-methoxyquinolin-4-yl)-5-(2-(trifluoromethyl)pyridin-3-yl)-3,4-dihydroisoquinolin-1(2H)-one] | –
56 | CCc1cc(C(=O)NCc2ccncc2)c2nccc(N3CCc4c(cc(Cn5ccnc5)cc4-c4cn(C)nc4C(F)(F)F)C3=O)c2c1 [Example 163, 4-(7-((1H-Imidazol-1-yl)methyl)-5-(1-methyl-3-(trifluoromethyl)-1H-pyrazol-4-yl)-1-oxo-3,4-dihydroisoquinolin-2(1H)-yl)-6-ethyl-N-(pyridin-4-ylmethyl)quinoline-8-carboxamide] | –
